Source: patent US7579469B2, “Glucocorticoid mimetics, methods of making them, pharmaceutical compositions, and uses thereof” (Boehringer Ingelheim Pharmaceuticals, Inc., priority 2003, dated 2009)

molecular target: T1, human glucocorticoid receptor (GR) complex (Homo sapiens, UniProt P04150); assay: Glucocorticoid receptor competitive binding assay (fluorescence polarization); settings: competition with TAMRA-labeled dexamethasone
T1 construct: made in house; host or cells: insect expression system (baculovirus lysate)
T1 sequence (P04150 1-777): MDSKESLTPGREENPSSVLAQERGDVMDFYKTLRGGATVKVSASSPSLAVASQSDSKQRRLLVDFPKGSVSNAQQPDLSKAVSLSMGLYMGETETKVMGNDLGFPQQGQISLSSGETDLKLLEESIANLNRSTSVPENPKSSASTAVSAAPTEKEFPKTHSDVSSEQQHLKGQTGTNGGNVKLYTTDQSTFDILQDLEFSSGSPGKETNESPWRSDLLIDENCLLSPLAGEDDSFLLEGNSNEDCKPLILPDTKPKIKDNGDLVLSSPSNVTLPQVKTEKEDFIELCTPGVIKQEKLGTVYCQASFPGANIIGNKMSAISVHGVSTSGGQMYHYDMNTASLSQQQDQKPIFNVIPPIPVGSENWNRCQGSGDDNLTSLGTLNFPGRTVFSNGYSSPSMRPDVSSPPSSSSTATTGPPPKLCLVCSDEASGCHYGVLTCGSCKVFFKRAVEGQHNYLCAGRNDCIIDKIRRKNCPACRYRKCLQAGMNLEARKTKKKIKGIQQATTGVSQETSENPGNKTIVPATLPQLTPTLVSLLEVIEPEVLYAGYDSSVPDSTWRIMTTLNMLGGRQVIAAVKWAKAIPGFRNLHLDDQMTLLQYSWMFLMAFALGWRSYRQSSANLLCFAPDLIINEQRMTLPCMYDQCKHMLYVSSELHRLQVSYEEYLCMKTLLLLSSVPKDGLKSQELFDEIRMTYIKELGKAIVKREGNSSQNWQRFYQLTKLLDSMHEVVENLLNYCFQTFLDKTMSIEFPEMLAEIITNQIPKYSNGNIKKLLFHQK
Method: Compounds of the invention were evaluated for binding to the steroid receptor by a fluorescence polarization competitive binding assay.
A. Glucocorticoid Receptor Competitive Binding Assay
Step 1. Characterization of the Fluorescent Probe
The wavelengths for maximum excitation and emission of the fluorescent probe should first be measured. An example of such a probe is rhodamine (TAMRA)-labeled dexamethasone.
The affinity of the probe for the steroid receptor was then determined in a titration experiment. The fluorescence polarization value of the probe in assay buffer was measured on an SLM-8100 fluorometer using the excitation and emission maximum values described above. Aliquots of expression vector lysate were added and fluorescence polarization was measured after each addition until no further change in polarization value was observed. Non-linear least squares regression analysis was used to calculate the dissociation constant of the probe from the polarization values obtained for lysate binding to the probe.
Step 2. Screening for Inhibitors of Probe Binding
This assay uses fluorescence polarization (FP) to quantitate the ability of test compounds to compete with tetramethyl rhodamine (TAMRA)-labeled dexamethasone for binding to a human glucocorticoid receptor (GR) complex prepared from an insect expression system. The assay buffer was: 10 mM TES, 50 mM KCl, 20 mM Na2MoO4.2H20, 1.5 mM EDTA, 0.04% w/v CHAPS, 10% v/v glycerol, 1 mM dithiothreitol, pH 7.4. Test compounds were dissolved to 1 mM in neat DMSO and then further diluted to 10× assay concentration in assay buffer supplemented with 10% v/v DMSO. Test compounds were serially diluted at 10× assay concentrations in 10% DMSO-containing buffer in 96-well polypropylene plates. Binding reaction mixtures were prepared in 96-well black Dynex microtiter plates by sequential addition of the following assay components to each well: 15 μL of 10× test compound solution, 85 μL of GR-containing baculovirus lysate diluted 1:170 in assay buffer, and 50 μL of 15 nM TAMRA-labeled dexamethasone. Positive controls were reaction mixtures containing no test compound; negative controls (blanks) were reaction mixtures containing 0.7 μM to 2 μM dexamethasone. […] IC50 values were determined by iterative non-linear curve fitting of the FP signal data to a 4-parameter logistic equation.

Activity in the GR binding assay, potent activity:
CC(C)(CC(O)(Cn1ccc(=O)c2ccc(O)cc21)C(F)(F)F)c1cc(F)ccc1O (centres unmarked), COc1ccc(Br)cc1C(C)(C)CC(O)(Cn1ccc(=O)c2ccccc21)C(F)(F)F (centres unmarked) [1-[4-(5-Bromo-2-methoxyphenyl)-2-hydroxy-4-methyl-2-trifluoromethylpentyl]-1H-quinolin-4-one], CC(C)(CC(O)(Cn1ccc(=O)c2ccccc21)C(F)(F)F)c1cc(F)ccc1OC(F)F (centres unmarked), COc1ccc(-c2cccs2)cc1C(C)(C)CC(O)(Cn1ccc(=O)c2ccccc21)C(F)(F)F (centres unmarked) [1-[2-Hydroxy-4-(2-methoxy-5-thiophen-2-ylphenyl)-4-methyl-2-trifluoromethylpentyl]-1H-quinolin-4-one], CC(C)(CC(O)(Cn1ccc(=O)c2ccccc21)C(F)(F)F)c1cc(-c2cccnc2)ccc1O (centres unmarked) [1-[2-Hydroxy-4-(2-hydroxy-5-pyridin-3-ylphenyl)-4-methyl-2-trifluoromethylpentyl]-1H-quinolin-4-one], COc1ccc(F)cc1C(C)(C)CC(O)(Cn1ncc(=O)c2ccccc21)C(F)(F)F (centres unmarked) [1-[4-(5-Fluoro-2-methoxyphenyl)-2-hydroxy-4-methyl-2-trifluoromethylpentyl]-1H-cinnolin-4-one], COc1ccc(-c2cccnc2)cc1C(C)(C)CC(O)(Cn1ccc(=O)c2ccccc21)C(F)(F)F (centres unmarked), COc1ccc(F)cc1C(C)(C)CC(O)(Cn1ccc(=O)c2cc(Cl)ccc21)C(F)(F)F (centres unmarked) [6-Chloro-1-[4-(5-fluoro-2-methoxyphenyl)-2-hydroxy-4-methyl-2-trifluoromethylpentyl]-1H-quinolin-4-one], COc1ccc(C=O)cc1C(C)(C)CC(O)(Cn1ccc(=O)c2ccccc21)C(F)(F)F (centres unmarked) [4-Methoxy-3-[4,4,4-trifluoro-3-hydroxy-1,1-dimethyl-3-(4-oxo-4H-quinolin-1-ylmethyl)butyl]benzaldehyde], CC(C)(CC(O)(Cn1ccc(=O)c2ncccc21)C(F)(F)F)c1cc(F)ccc1O (centres unmarked) [1-[4-(5-Fluoro-2-hydroxyphenyl)-2-hydroxy-4-methyl-2-trifluoromethylpentyl]-1H-[1,5]naphthyridin-4-one], CON=C(C)c1cccc(C(C)(C)CC(O)(Cn2ccc(=O)c3ccccc32)C(F)(F)F)c1 (centres unmarked) [1-(2-Hydroxy-4-{3-[1-(methoxyimino)ethyl]phenyl}4-methyl-2-trifluoromethylpentyl)-1H-quinolin-4-one], CC(C)Oc1ccc(F)cc1C(C)(C)CC(O)(Cn1ccc(=O)c2ccccc21)C(F)(F)F (centres unmarked), COc1ccc(F)cc1C(C)(C)CC(O)(Cn1ccc(=O)c2ccccc21)C(F)F (centres unmarked), CC(C)(CC(O)(Cn1[nH]c(=O)c2ccccc21)C(F)(F)F)c1cc(F)ccc1O (centres unmarked) [1-[4-(5-Fluoro-2-hydroxyphenyl)-2-hydroxy-4-methyl-2-trifluoromethylpentyl]-1,2-dihydroindazol-3-one], Cc1cn(CC(O)(CC(C)(C)c2cccc3c2OCC3)C(F)(F)F)c(CO)c(C)c1=O (centres unmarked) [1-[4-(2,3-Dihydrobenzofuran-7-yl)-2-hydroxy-4-methyl-2-trifluoromethylpentyl]-2-hydroxymethyl-3,5-dimethyl-1H-pyridin-4-one], COc1ccc(F)cc1C(C)(C)CC(O)(Cn1ccc(=O)c2ccccc21)C1CC1 (centres unmarked), Cc1cn(CC(O)(CC(C)(C)c2cc(F)ccc2O)C(F)(F)F)c(CO)c(C)c1=O (centres unmarked) [1-[4-(5-Fluoro-2-hydroxyphenyl)-2-hydroxy-4-methyl-2-trifluoromethylpentyl]-2-hydroxymethyl-3,5-dimethyl-1H-pyridin-4-one]
